The structures appear in SMILES notation. pIC50: −log10 of the molar value. Where two headings read alike, the source gives them in different places.

From article PMC4076079, “Selective inhibitors of a PAF biosynthetic enzyme lysophosphatidylcholine acyltransferase 2” (Journal of Lipid Research, 2014) come the findings set out here.

Series [1] is described as follows: cell viability assay (WST-8). Type of series: cell-based. The note with it: mouse, RAW264.7 cells (wild-type), 36 h treatment, data not shown, read-out: cytotoxicity IC50 (cell viability). The procedure:
Cell viability was measured using a modified MTT [3-(4,5-dimethylthiazol-2-yl)-2,5-diphenyltetrazolium bromide] dye reduction assay using WST-8 [2-(2-methoxy-4-nitrophenyl)-3-(4-nitrophenyl)-5-(2,4-disulfophenyl)-2H-tetrazolium, monosodium salt; Dojindo Molecular Technologies, Inc., Kumamoto, Japan] according to the manufacturer’s instructions. […] or RAW-mLPCAT2 cells were seeded in 96-well plates (1 × 10^4 cells/well) for 8 h and then treated with a compound for 36 h. WST-8 was added for another 2 h and the 450 nm absorbance was measured using a microplate reader (Bio-Rad). Cell viability was expressed as a percentage of vehicle-treated control values. To observe the effects of the incubation time on cell viability, 0.4 × 10^4 RAW-mLPCAT2 cells were treated with compounds for 1 or 6 h before the WST-8 assay.
Step 8 screening: cell viability assay
Wild-type RAW264.7 cells and RAW264.7 cells transfected with mLPCAT2 or control plasmid were used. Cells were cultured for 36 h with 0, 0.06, 0.2, 0.6, 2, 6, and 20 µM of compounds in 96-well plates and assayed for viability with WST-8. […]
(§1) The data were normalized to each positive control (100% activation). Percentage inhibition or IC50 were determined in each screening step. To assess screening quality, the percentage coefficient of variance and the Z’ factor was calculated for each plate or each assay as described previously (2).
On the technique in general: Tetrazolium dyes change colour on reduction, which living cells bring about.

The subject of the next series is RAW-mLPCAT2 cells. Put plainly: cell-based assay: A23187-induced PAF production, PAF and lyso-PAF by LC-MS/MS. The arrangement: species or system mouse. The note with it: for pIC50: Mus musculus. As to the method: RAW-mLPCAT2 cells and peritoneal macrophages were seeded in 24-well plates (4 × 10^6 cells/well) for 24 or 2 h, respectively, before treatment. RAW-mLPCAT2 cells were stimulated with 5 μM A23187 for 5 min after a 1 h treatment with the compounds. Peritoneal macrophages were preincubated with 100 ng/ml LPS for 18 h, treated with the compounds for 1 h, and stimulated with 5 μM A23187 for 5 min. To analyze cellular PAF levels, lipids were extracted with 500 μl methanol containing d4-PAF and d4-lyso-PAF as internal standards. Each sample was submitted to solid phase extraction using an Oasis HLB 96-well cartridge cluster (Waters), and PAF and lyso-PAF were measured by LC-MS/MS as previously described ([13]).
Chromatography was performed using an Acquity™ Ultra-performance LC system (Waters) coupled to a TSQ Vantage triple stage quadrupole mass spectrometer (Thermo Scientific) with a HESI-II electrospray ionization source ([13]). Phospholipids were separated on BEH C8 columns (1.7 μm, 2.1 × 30 mm or 1 × 100 mm; Waters) for the analysis of assay products or the composition of cellular PAF and lyso-PAF, respectively. The mobile phase contained 20 mM aqueous ammonium bicarbonate and acetonitrile. The extracts from peritoneal macrophages were separated on a Kinetex C8 column (1.7 μm, 2.1 × 100 mm; Phenomenex, Torrance, CA) by a gradient elution with 0.05% formic acid-water and acetonitrile, using the Nexera X2 system and LCMS-8080 mass spectrometer (Shimadzu, Kyoto, Japan) ([13]). Lyso-PAF, d4-PAF, and d31-DPPC were identified by the choline fragment (m/z 184) as a product ion of selected reaction monitoring in the positive ion mode. Nonlabeled PAF and d4-16:0/20:4 alkyl-PC were determined by fatty acid anions of sn-2 composition (m/z 59 and 303, respectively) in the negative ion mode. Mass spectra were processed using the Xcalibur 2.0 (Thermo Scientific) or LabSolutions 5.50 (Shimadzu) software. Signal intensities were determined relative to the internal standard or as the percentage of the positive control. […]
Step 9 screening: cell-based assay
RAW-mLPCAT2 cells were treated with compounds for 1 h and analyzed after 5 min stimulation with A23187. The assays were performed with 0, 0.2, 0.6, 20, and 50 or 60 µM of compound. PAF concentration was measured by LC-MS/MS.
as §1

The mark [2] stands for this setting: 1 h pretreatment, 5 μM A23187 for 5 min.
[3] abbreviates: screening step 9 (n = 2), 1 h compound, 5 min A23187, read-out: IC50, A23187-induced PAF production.

Usually IC50 stands for the midpoint of a concentration-inhibition curve. In general, pIC50 refers to −log10 of the IC50, conventionally taken in molar units. As to `CC(C)OC(=O)c1ccc(N2C(=O)C(Cl)=C(Cl)C2=O)cc1` [TSI-01, propan-2-yl 4-(3,4-dichloro-2,5-dioxopyrrol-1-yl)benzoate], the concentration for half-maximal inhibition (IC50) at 36 h in series [1] is more than 20 µM. Moreover, in the series on RAW-mLPCAT2 cells (setting [2]), the “A23187-induced PAF production” value is listed as “suppressed” and the lyso-PAF level result is given as “increased”. For the same compound, in the series on RAW-mLPCAT2 cells (1 h pretreatment, 5 μM A23187 for 5 min, Fig. 4, three independent experiments, read-out: IC50, inhibition of PAF production), the pIC50 was 4.41. Further, the pIC50 in the series on RAW-mLPCAT2 cells (setting [3]) is 4.55.
Turning to `O=C1C(Cl)=C(N2CCOCC2)C(=O)N1c1ccc(Oc2ccccc2)cc1` [TSI-02, 3-chloro-4-morpholin-4-yl-1-(4-phenoxyphenyl)pyrrole-2,5-dione], in the series on RAW-mLPCAT2 cells (setting [3]), the pIC50 is 4.63.
In the case of `CC(C)OC(=O)c1ccc(N2C(=O)C(Cl)=C(Nc3ccccc3O)C2=O)cc1` [TSI-07], the IC50 at 36 h in series [1] is more than 20 µM. Further, in the series with RAW-mLPCAT2 cells (setting [2]), the “A23187-induced PAF production” value was “suppressed” and the lyso-PAF level result is “decreased”.
For `CCCOC(=O)c1ccc(N2C(=O)C(Cl)=C(Cl)C2=O)cc1` [TSI-10] the same measures were more than 20 µM, “suppressed” and “increased”.
Taken in the same sequence, the figures for `CCCCOC(=O)c1ccc(N2C(=O)C(Cl)=C(Cl)C2=O)cc1` [TSI-11, butyl 4-(3,4-dichloro-2,5-dioxopyrrol-1-yl)benzoate] were more than 20 µM, “suppressed” and “not changed”.
